# Results as given in patent publication US11147272B2, “Pyridone compounds and agricultural and horticultural fungicides comprising the same as active ingredients” (MITSUI CHEMICALS AGRO, INC., priority 2017, dated 2021).
# Where two headings read alike, the source gives them in different places.
# Tests used:
# Magnaporthe grisea = test: whole plant or invertebrate; format: in vivo; conditions: for pest or weed control at 250 µg/mL: Pyricularia oryzae, in Oryza sativa; for Test A control value class: class of control value
# Alternaia brassicicola = test: Test Example C: Alternaria sooty spot on cabbage; format: in vivo; conditions: for pest or weed control at 250 µg/mL: Brassica oleracea, topical
# Text: Seeds of a test plant (cabbage variety: Shikidori) were planted and cultivated until the cotyledons extended.
# <Control Value> Control value=100{1−(n/3)}
# Puccinia recondita = test: Test Example E: Brown rust on wheat; format: in vivo; conditions: for pest or weed control at 250 µg/mL: Puccinia recondita, topical
# Phytophthora infestans = test: whole plant or invertebrate; format: in vivo; conditions: for pest or weed control at 250 µg/mL: Phytophthora infestans, in Solanum lycopersicum, topical; for Test F control value class: class of control value
# Botrytis cinerea = test: Test Example B: Gray mold on tomato; conditions: for pest or weed control at 250 µg/mL: Botrytis cinerea, in Solanum lycopersicum, topical; for Test B control value class: class of control value
# Plasmopara viticola = test: Test Example G: Downy mildew on vine; conditions: for pest or weed control at 250 ppm: Plasmopara viticola, topical; for Test G control value: 7 to 10 days after inoculation; for Test G control value class: Downy mildew on vine (Neomuscat), 2.5 ml/pot, assessed 7 to 10 days after inoculation
# [1] = test system: Colletotrichum orbiculare; test: Test Example H: Anthracnose on cucumber; conditions: for pest or weed control at 250 ppm: Colletotrichum orbiculare, in Cucumis sativus, topical; for Test H control value: 6 to 10 days after inoculation; for Test H control value class: Anthracnose on cucumber (Sagami Hanjiro), 2.5 ml/pot, assessed 6 to 10 days after inoculation
# [2] = test system: Blumeria graminis f. sp. hordei; test: Test Example D: Powdery mildew on barley; conditions: for pest or weed control at 250 µg/mL: Blumeria graminis, in Hordeum vulgare, topical; for Test D control value class: class of control value
# [3] = 250 ppm drug solution sprayed on test plant
# [4] = 250 ppm drug solution sprayed (2.5 ml/pot), grape Neomuscat
# [5] = 250 ppm drug solution sprayed (2.5 ml/pot), cucumber Sagami Hanjiro
# [6] = Blast on rice, control value class
# [7] = Alternaria sooty spot on cabbage, control value class
# [8] = Brown rust on wheat, control value class
# [9] = Late blight on tomato, control value class
# [10] = Gray mold on tomato, control value class
# [11] = Downy mildew on vine, 250 ppm spray
# [12] = Anthracnose on cucumber, 250 ppm spray
# [13] = Powdery mildew on barley, control value class
# [14] = Alternaria sooty spot on cabbage, class of control value
# [15] = Brown rust on wheat, class of control value
compound,measurement,setting,value
"CCn1c(-c2c(F)cccc2F)c(C=O)cc(Cl)c1=O [Compound No. 20, 5-chloro-2-(2,6-difluorophenyl)-1-ethyl-6-oxo-1,6-dihydropyridine-3-carb aldehyde]",pest or weed control at 250 µg/mL,Magnaporthe grisea; read-out: Test A control value class,> 50%
same,pest or weed control at 250 µg/mL,"Alternaia brassicicola; Alternaria sooty spot on cabbage, class of control value, read-out: Test C control value class",< 50%
same,pest or weed control at 250 µg/mL,"Puccinia recondita; Brown rust on wheat, class of control value, read-out: Test E control value class",> 50%
same,pest or weed control at 250 µg/mL,Phytophthora infestans; read-out: Test F control value class,< 50%
same,pest or weed control at 250 µg/mL,Botrytis cinerea; read-out: Test B control value class,> 50%
same,pest or weed control at 250 ppm,Plasmopara viticola; read-out: Test G control value class,> 50%
same,pest or weed control at 250 ppm,[1]; read-out: Test H control value class,< 50%
same,pest or weed control at 250 µg/mL,[2]; read-out: Test D control value class,< 50%
COc1cc(F)c(-c2c(C(C)(O)C(C)C)cc(Cl)c(=O)n2C)c(F)c1 (stereo not drawn) [compound 487],Test A control value,Magnaporthe grisea; [3],H (more than 50% control value)
same,Test C control value,Alternaia brassicicola; [3],H (more than 50% control value)
same,Test E control value,Puccinia recondita; [3],H (more than 50% control value)
same,Test F control value,Phytophthora infestans; [3],H (more than 50% control value)
same,Test B control value,Botrytis cinerea; [3],H (more than 50% control value)
same,Test G control value,Plasmopara viticola; [4],H (more than 50% control value)
same,Test H control value,[1]; [5],H (more than 50% control value)
same,Test D control value,[2]; [3],H (more than 50% control value)
CCn1c(-c2ccc(F)cc2)c(C(C)(OC)C(C)C)cc(Cl)c1=O (stereo not drawn) [compound 214],Test A control value,Magnaporthe grisea; [6],H (more than 50% control value)
same,Test C control value,Alternaia brassicicola; [7],H (more than 50% control value)
same,Test E control value,Puccinia recondita; [8],H (more than 50% control value)
same,Test F control value,Phytophthora infestans; [9],L (50% or less control value)
same,Test B control value,Botrytis cinerea; [10],H (more than 50% control value)
same,Test G control value,Plasmopara viticola; [11],L (50% or less control value)
same,Test H control value,[1]; [12],L (50% or less control value)
same,Test D control value,[2]; [13],H (more than 50% control value)
CC(C)Cc1ccc(=O)n(C)c1-c1ccc(Cl)cc1Cl [compound 134],Test A control value class,Magnaporthe grisea; Blast on rice,H (more than 50% control value)
same,Test C control value class,Alternaia brassicicola; [14],L (50% or less control value)
same,Test E control value class,Puccinia recondita; [15],H (more than 50% control value)
same,Test F control value class,Phytophthora infestans; Late blight on tomato,L (50% or less control value)
same,Test B control value class,Botrytis cinerea; Gray mold on tomato,H (more than 50% control value)
same,Test G control value class,Plasmopara viticola; 250 ppm spray,H (more than 50% control value)
same,Test H control value class,[1]; 250 ppm spray,L (50% or less control value)
same,Test D control value class,[2]; Powdery mildew on barley,H (more than 50% control value)
C=C(c1cc(Cl)c(=O)n(CC)c1-c1c(F)cccc1F)C(C)C [compound 197],Test A control value,Magnaporthe grisea; [6],H (more than 50% control value)
same,Test C control value,Alternaia brassicicola; [7],H (more than 50% control value)
same,Test E control value,Puccinia recondita; [8],H (more than 50% control value)
same,Test F control value,Phytophthora infestans; [9],L (50% or less control value)
same,Test B control value,Botrytis cinerea; [10],H (more than 50% control value)
same,Test G control value,Plasmopara viticola; [11],H (more than 50% control value)
same,Test H control value,[1]; [12],H (more than 50% control value)
same,Test D control value,[2]; [13],H (more than 50% control value)
CCn1c(-c2ccc(OC)cc2)c(C=O)cc(Cl)c1=O [compound 287],Test A control value,Magnaporthe grisea; [6],L (50% or less control value)
same,Test C control value,Alternaia brassicicola; [7],H (more than 50% control value)
same,Test E control value,Puccinia recondita; [8],L (50% or less control value)
same,Test F control value,Phytophthora infestans; [9],L (50% or less control value)
same,Test B control value,Botrytis cinerea; [10],L (50% or less control value)
same,Test G control value,Plasmopara viticola; [11],L (50% or less control value)
same,Test H control value,[1]; [12],L (50% or less control value)
same,Test D control value,[2]; [13],L (50% or less control value)
CCn1c(-c2ccc(F)cc2C)c(CC(C)C)ccc1=O [compound 202],Test A control value,Magnaporthe grisea; [6],H (more than 50% control value)
same,Test C control value,Alternaia brassicicola; [7],L (50% or less control value)
same,Test E control value,Puccinia recondita; [8],H (more than 50% control value)
same,Test F control value,Phytophthora infestans; [9],L (50% or less control value)
same,Test B control value,Botrytis cinerea; [10],H (more than 50% control value)
same,Test G control value,Plasmopara viticola; [11],H (more than 50% control value)
same,Test H control value,[1]; [12],L (50% or less control value)
same,Test D control value,[2]; [13],H (more than 50% control value)
CCn1c(-c2c(F)cccc2F)c(C(C)C(C)C)cc(Cl)c1=O (stereo not drawn) [compound 198],Test A control value,Magnaporthe grisea; [6],H (more than 50% control value)
same,Test C control value,Alternaia brassicicola; [7],H (more than 50% control value)
same,Test E control value,Puccinia recondita; [8],H (more than 50% control value)
same,Test F control value,Phytophthora infestans; [9],L (50% or less control value)
same,Test B control value,Botrytis cinerea; [10],H (more than 50% control value)
same,Test G control value,Plasmopara viticola; [11],L (50% or less control value)
same,Test H control value,[1]; [12],H (more than 50% control value)
same,Test D control value,[2]; [13],H (more than 50% control value)
CCn1c(-c2c(F)cc(F)cc2F)c(C(C)(O)CC)cc(Br)c1=O (stereo not drawn) [compound 482],Test A control value,Magnaporthe grisea; [3],H (more than 50% control value)
same,Test C control value,Alternaia brassicicola; [3],H (more than 50% control value)
same,Test E control value,Puccinia recondita; [3],H (more than 50% control value)
same,Test F control value,Phytophthora infestans; [3],L (50% or less control value)
same,Test B control value,Botrytis cinerea; [3],H (more than 50% control value)
same,Test G control value,Plasmopara viticola; [4],H (more than 50% control value)
same,Test H control value,[1]; [5],H (more than 50% control value)
same,Test D control value,[2]; [3],H (more than 50% control value)
C#Cc1cc(Cl)c(=O)n(CC)c1-c1c(F)cc(F)cc1F [compound 303],Test A control value,Magnaporthe grisea; [6],L (50% or less control value)
same,Test C control value,Alternaia brassicicola; [7],H (more than 50% control value)
same,Test E control value,Puccinia recondita; [8],H (more than 50% control value)
same,Test F control value,Phytophthora infestans; [9],L (50% or less control value)
same,Test B control value,Botrytis cinerea; [10],H (more than 50% control value)
same,Test G control value,Plasmopara viticola; [11],L (50% or less control value)
same,Test H control value,[1]; [12],H (more than 50% control value)
same,Test D control value,[2]; [13],H (more than 50% control value)
CCC(=O)c1ccc(=O)n(CC)c1-c1c(F)cc(F)cc1F [compound 480],Test A control value,Magnaporthe grisea; [3],L (50% or less control value)
same,Test C control value,Alternaia brassicicola; [3],L (50% or less control value)
same,Test E control value,Puccinia recondita; [3],L (50% or less control value)
same,Test F control value,Phytophthora infestans; [3],L (50% or less control value)
same,Test B control value,Botrytis cinerea; [3],H (more than 50% control value)
same,Test G control value,Plasmopara viticola; [4],L (50% or less control value)
same,Test H control value,[1]; [5],H (more than 50% control value)
same,Test D control value,[2]; [3],H (more than 50% control value)
CCn1c(-c2c(F)cc(F)cc2F)c(CC(C)(C)C)cc(Cl)c1=O [compound 169],Test A control value class,Magnaporthe grisea; Blast on rice,H (more than 50% control value)
same,Test C control value class,Alternaia brassicicola; [14],H (more than 50% control value)
same,Test E control value class,Puccinia recondita; [15],H (more than 50% control value)
same,Test F control value class,Phytophthora infestans; Late blight on tomato,H (more than 50% control value)
same,Test B control value class,Botrytis cinerea; Gray mold on tomato,H (more than 50% control value)
same,Test G control value class,Plasmopara viticola; 250 ppm spray,H (more than 50% control value)
same,Test H control value class,[1]; 250 ppm spray,H (more than 50% control value)
same,Test D control value class,[2]; Powdery mildew on barley,H (more than 50% control value)
CCCc1ccc(=O)n(CC)c1-c1ccc(OC)cc1C [compound 411],Test A control value,Magnaporthe grisea; [3],L (50% or less control value)
same,Test C control value,Alternaia brassicicola; [3],L (50% or less control value)
same,Test E control value,Puccinia recondita; [3],H (more than 50% control value)
same,Test F control value,Phytophthora infestans; [3],L (50% or less control value)
same,Test B control value,Botrytis cinerea; [3],H (more than 50% control value)
same,Test G control value,Plasmopara viticola; [4],L (50% or less control value)
same,Test H control value,[1]; [5],L (50% or less control value)
same,Test D control value,[2]; [3],H (more than 50% control value)
"CCn1c(-c2c(F)cccc2F)c(C(C)(OC)C(C)C)cc(Cl)c1=O (stereo not drawn) [Compound No. 187, 3-chloro-6-(2,6-difluorophenyl)-1-ethyl-5-(2-methoxy-3-methylbutan-2-yl)pyridin-2(1H)-one]",pest or weed control at 250 µg/mL,Magnaporthe grisea; read-out: Test A control value,> 50%
same,pest or weed control at 250 µg/mL,"Alternaia brassicicola; Alternaria sooty spot on cabbage, control value class, read-out: Test C control value",> 50%
same,pest or weed control at 250 µg/mL,"Puccinia recondita; Brown rust on wheat, control value class, read-out: Test E control value",> 50%
same,pest or weed control at 250 µg/mL,Phytophthora infestans; read-out: Test F control value,< 50%
same,pest or weed control at 250 µg/mL,Botrytis cinerea; read-out: Test B control value,> 50%
same,pest or weed control at 250 ppm,"Plasmopara viticola; 168 h, read-out: Test G control value",> 50%
same,pest or weed control at 250 ppm,"[1]; 144 h, read-out: Test H control value",> 50%
same,pest or weed control at 250 µg/mL,[2]; read-out: Test D control value,> 50%
CC(C)CC1=C(c2c(F)cc(F)cc2F)N(CC(F)F)C(=O)CC1 [compound 296],Test A control value,Magnaporthe grisea; [6],L (50% or less control value)
same,Test C control value,Alternaia brassicicola; [7],H (more than 50% control value)
same,Test E control value,Puccinia recondita; [8],H (more than 50% control value)
same,Test F control value,Phytophthora infestans; [9],L (50% or less control value)
same,Test B control value,Botrytis cinerea; [10],L (50% or less control value)
same,Test G control value,Plasmopara viticola; [11],L (50% or less control value)
same,Test H control value,[1]; [12],L (50% or less control value)
same,Test D control value,[2]; [13],L (50% or less control value)
